Key:
Ba/F3_KRAS^G12D cells = Ba/F3_KRAS^G12D cells (Homo sapiens, UniProt P01116, G12D, cells depend on it); experiment: Ba/F3 KRAS^G12D cell proliferation assay (cell-titer Glo); format: cell-based; conditions: cell growth inhibition, treated with the compounds for 3 days, read-out: BaF3_KRAS^G12D IC50
[1] = target: recombinant human KRAS^G12D protein (Homo sapiens, UniProt P01116, G12D); experiment: Temperature-dependent Fluorescence (TdF) KRAS^G12D protein binding assay; conditions: 6 μM KRAS^G12D Protein, 10 μM compound, Sypro Orange; Kd calculated from fluorescent shift
recombinant human KRAS^G12D protein, sequence (P01116 1-188 isoform P01116-2 G12D): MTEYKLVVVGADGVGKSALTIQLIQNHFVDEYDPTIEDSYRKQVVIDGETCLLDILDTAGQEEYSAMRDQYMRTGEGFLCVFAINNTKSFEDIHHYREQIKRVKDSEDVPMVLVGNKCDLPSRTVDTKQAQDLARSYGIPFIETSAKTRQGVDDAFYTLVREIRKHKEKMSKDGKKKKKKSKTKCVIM
Method in brief: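 Sypro Orange thermal-shift assay, heating from 30 to 95 °C with readings every 0.4 °C (ex 470/em 570 nm). Binding is gauged as ΔTm with versus without compound. Kd is calculated from the degree of the unfolding-temperature shift.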

Ba/F3_KRAS^G12D cells, sequence (P01116 whole entry G12D): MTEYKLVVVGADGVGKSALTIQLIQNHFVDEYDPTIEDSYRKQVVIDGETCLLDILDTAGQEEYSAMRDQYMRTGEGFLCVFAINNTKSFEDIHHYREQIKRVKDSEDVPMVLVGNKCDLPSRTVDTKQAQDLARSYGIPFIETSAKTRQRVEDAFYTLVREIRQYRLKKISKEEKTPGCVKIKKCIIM

Structure (SMILES) | GI50 (Ba/F3_KRAS^G12D cells) [µM] | Kd [1] [µM]
Cc1nc(-c2ccc(F)c3nc(N)sc23)c(F)c2nc(OC[C@@]34CCCN3C[C@H](F)C4)nc(N3CC4CCC(C3)N4)c12 [Compound 99] | 0.5 to 5 | > 5
Oc1cc(-c2nc3nc(OCC45CCCN4CCC5)nc(N4CC5CCC(C4)N5)c3cc2Cl)c2ccccc2c1 [Compound 10] | > 5 | > 5
Clc1cccc2cccc(-c3ncc4c(N5CC6CCC(C5)N6)nc(OCC56CCCN5CCC6)cc4n3)c12 [Compound 46] | 0.5 to 5 | > 5
CN1CCC[C@H]1Cn1c(=O)nc(N2CCN[C@@H](CC#N)C2)c2cnc(-c3cc(O)cc4cccc(Cl)c34)c(F)c21 [Compound 64] | > 5 | > 5

Second part, the compound after the results:

GI50 (Ba/F3_KRAS^G12D cells) [µM] | Kd [1] [µM] | Structure (SMILES)
< 0.5 | ≤ 0.5 | C#Cc1c(F)ccc2cc(O)cc(-c3nc(OC)c4c(N5CC6CCC(C5)N6)nc(OC[C@]56CCCN5[C@@H](COC(=O)N(C)C)CC6)nc4c3F)c12 [Compound 176]
< 0.5 | ≤ 0.5 | C#Cc1c(F)ccc2cc(O)cc(-c3nc(OC(C)C)c4c(N5CC6CCC(C5)N6)nc(OC[C@@]56CCCN5C[C@H](F)C6)nc4c3F)c12 [Compound 171]

— patent publication US20230357233A1, “HETEROARYL COMPOUNDS, PREPARATION METHODS AND USES THEREOF” (INVENTISBIO CO., LTD., priority 2020, published 2023)
